The assay has as its target T1, BCL6 (Homo sapiens, UniProt P41182).
T1 construct: endogenous in cells; host or cells: T47D breast cancer epithelial cells
Briefly: Immunofluorescence protocol for high content imaging of BCL6 (degradation) in T47D cells, 3 days compound treatment. It counts as cell-based. The note with it: for Dmax: read-out: Mean Dmax (%)** category; for DC50: read-out: Mean DC50 (nM)* category. In outline: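 T47D, RPMI1640/10% FBS; cpd 11-pt 3-fold, top 0.1 or 1 μM final; 3 d, 37° C. Fix 4% PFA, perm 0.1% Triton, block 3% BSA; anti-BCL6 1:300 o/n 4° C; Alexa-488 2°, CellMask-647, Hoechst. Imaged 10×, 4 fields/well.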

Setting [1] is: T47D cells, 3 days compound treatment.

Consider twelve molecules from patent publication US11986532B2 (Arvinas Operations, Inc., priority 2021, dated 2024).

SMILES strings stand for the structures. Like-named read-outs stand apart in the source and are kept apart here.

Usually Dmax stands for the greatest extent of degradation seen. One may read the DC50 as the midpoint of the concentration-degradation curve.

For the molecule `CNC(=O)COc1cc2cc(Nc3nc(N4CCC(O[C@H]5C[C@H](N6CCN(c7ccc8c(c7F)CN([C@H]7CCC(=O)NC7=O)C8=O)[C@H](C)C6)C5)CC4)ncc3Cl)ccc2n(C(C)C)c1=O` [Compound 394, 2-({6-[(5-chloro-2-{4-[(1r,3r)-3-[(3R)-4-{2-[(3S)-2,6-dioxopiperidin-3-yl]-4-fluoro-1-oxo-2,3-dihydro-1H-isoindol-5-yl}-3-methylpiperazin-1-yl]cyclobutoxy]piperidin-1-yl}pyrimidin-4-yl)amino]-2-oxo-1-(propan-2-yl)-1,2-dihydroquinolin-3-yl}oxy)-N-methylacetamide], the DC50 was less than 10 nM. In addition, under “T47D”, the Dmax was not below 70%.
For `CNC(=O)COc1cc2cc(Nc3nc(N4CCC(O[C@H]5C[C@H](N6CCCN(c7ccc8c(c7C)C(=O)N(C7CCC(=O)NC7=O)C8=O)CC6)C5)CC4)ncc3Cl)ccc2n(C(C)C)c1=O` (stereo partly drawn) [Compound 417, 2-({6-[(5-chloro-2-{4-[(1r,3r)-3-{4-[2-(2,6-dioxopiperidin-3-yl)-4-methyl-1,3-dioxo-2,3-dihydro-1H-isoindol-5-yl]-1,4-diazepan-1-yl}cyclobutoxy]piperidin-1-yl}pyrimidin-4-yl)amino]-2-oxo-1-(propan-2-yl)-1,2-dihydroquinolin-3-yl}oxy)-N-methylacetamide], in that order: less than 10 nM and not below 70%.
For the molecule `CNC(=O)COc1cc2cc(Nc3nc(N4CCC(O[C@H]5C[C@H](N6CCN(c7ccc8c(n7)CN(C7CCC(=O)NC7=O)C8=O)[C@H](C)C6)C5)CC4)ncc3Cl)ccc2n(C(C)C)c1=O` (stereo partly drawn) [Compound 415, 2-({6-[(5-chloro-2-{4-[(1r,3r)-3-[(3R)-4-[6-(2,6-dioxopiperidin-3-yl)-5-oxo-5H,6H,7H-pyrrolo [3,4-b]pyridin-2-yl]-3-methylpiperazin-1-yl]cyclobutoxy]piperidin-1-yl}pyrimidin-4-yl)amino]-2-oxo-1-(propan-2-yl)-1,2-dihydroquinolin-3-yl}oxy)-N-methylacetamide], the “Mean Dmax (%)** category” value is “A (A >= 70)” and the DC50 is less than 10 nM.
In the case of `CNC(=O)COc1cc2cc(Nc3nc(N4CCC(O[C@H]5C[C@H](N6CC7(CCN(c8ccc9c(c8)C(=O)N(C8CCC(=O)NC8=O)C9)CC7)C6)C5)CC4)ncc3Cl)ccc2n(C(C)C)c1=O` (stereo partly drawn) [Compound 377, 2-({6-[(5-chloro-2-{4-[(1r,3r)-3-{7-[2-(2,6-dioxopiperidin-3-yl)-3-oxo-2,3-dihydro-1H-isoindol-5-yl]-2,7-diazaspiro[3.5]nonan-2-yl}cyclobutoxy]piperidin-1-yl}pyrimidin-4-yl)amino]-2-oxo-1-(propan-2-yl)-1,2-dihydroquinolin-3-yl}oxy)-N-methylacetamide], the half-maximal degradation concentration (DC50) fell in the range of 50 to 100 nM. Moreover, under “T47D”, the Dmax was not below 70%.
As for `CNC(=O)COc1cc2cc(Nc3nc(N4CCC(OC5CCN(c6ccc7c(c6)CN(C6CCC(=O)NC6=O)C7=O)CC5)CC4)ncc3Cl)ccc2n(C(C)C)c1=O` (stereo not drawn) [Compound 28, 2-{[6-({5-chloro-2-[4-({1-[2-(2,6-dioxopiperidin-3-yl)-1-oxo-2,3-dihydro-1H-isoindol-5-yl]piperidin-4-yl}oxy)piperidin-1-yl]pyrimidin-4-yl}amino)-2-oxo-1-(propan-2-yl)-1,2-dihydroquinolin-3-yl]oxy}-N-methylacetamide], under setting [1], the DC50 is less than 10 nM and the Dmax fell in the range of 50 to 70%.
As to `CNC(=O)COc1cc2cc(Nc3nc(N4CCC(OC5CCC6(CC5)CN(c5ccc7c(c5)C(=O)N(C5CCC(=O)NC5=O)C7)C6)CC4)ncc3Cl)ccc2n(C(C)C)c1=O` (stereo not drawn) [Compound 69, 2-{[6-({5-chloro-2-[4-({2-[2-(2,6-dioxopiperidin-3-yl)-3-oxo-2,3-dihydro-1H-isoindol-5-yl]-2-azaspiro[3.5]nonan-7-yl}oxy)piperidin-1-yl]pyrimidin-4-yl}amino)-2-oxo-1-(propan-2-yl)-1,2-dihydroquinolin-3-yl]oxy}-N-methylacetamide], under setting [1], the DC50 was less than 10 nM and the Dmax fell in the range of 50 to 70%.
For `CNC(=O)COc1cc2cc(Nc3nc(N4CCN(CC5(F)CCN(c6cccc7c6CN(C6CCC(=O)NC6=O)C7=O)CC5)CC4)ncc3Cl)ccc2n(C(C)C)c1=O` (stereo not drawn) [Compound 114, 2-{[6-({5-chloro-2-[4-({1-[2-(2,6-dioxopiperidin-3-yl)-1-oxo-2,3-dihydro-1H-isoindol-4-yl]-4-fluoropiperidin-4-yl}methyl)piperazin-1-yl]pyrimidin-4-yl}amino)-2-oxo-1-(propan-2-yl)-1,2-dihydroquinolin-3-yl]oxy}-N-methylacetamide], under setting [1], the DC50 is less than 10 nM and the Dmax was 50 to 70%.
`CNC(=O)COc1cc2c(F)c(Nc3nc(N4CCC(CN5CCC6(CC5)CN(c5ccc7c(c5)C(=O)N(C5CCC(=O)NC5=O)C7=O)C6(C)C)CC4)ncc3Cl)ccc2n(C(C)C)c1=O` (stereo not drawn) [Compound 375, 2-{[6-({5-chloro-2-[4-({2-[2-(2,6-dioxopiperidin-3-yl)-1,3-dioxo-2,3-dihydro-1H-isoindol-5-yl]-1,1-dimethyl-2,7-diazaspiro[3.5]nonan-7-yl}methyl)piperidin-1-yl]pyrimidin-4-yl}amino)-5-fluoro-2-oxo-1-(propan-2-yl)-1,2-dihydroquinolin-3-yl]oxy}-N-methylacetamide]: the DC50 was less than 10 nM. Also, under “T47D”, the Dmax was not below 70%.
For `CNC(=O)COc1cc2cc(Nc3nc(N4CCC(OC5CN([C@H]6CC[C@H](c7ccc8c(c7Cl)CN(C7CCC(=O)NC7=O)C8=O)CC6)C5)CC4)ncc3Cl)ccc2n(C(C)C)c1=O` (stereo partly drawn) [Compound 185], under setting [1], the DC50 is less than 10 nM and the Dmax fell in the range of 50 to 70%.
For `CNC(=O)COc1cc2c(F)c(Nc3nc(N4CCC(O[C@H]5C[C@H](N6CCN(c7ccc8c(c7C)C(=O)N(C7CCC(=O)NC7=O)C8=O)[C@H](C)C6)C5)CC4)ncc3Cl)ccc2n(C(C)C)c1=O` (stereo partly drawn) [Compound 199] the same measures were less than 10 nM and not below 70%.
For `CNC(=O)COc1cc2cc(Nc3nc(N4CCC(CN5CCC6(CC(=O)N(c7ccc8c(c7)CN(C7CCC(=O)NC7=O)C8=O)C6)C5)CC4)ncc3Cl)ccc2n(C(C)C)c1=O` (stereo not drawn) [Compound 39, 2-{[6-({5-chloro-2-[4-({7-[2-(2,6-dioxopiperidin-3-yl)-1-oxo-2,3-dihydro-1H-isoindol-5-yl]-8-oxo-2,7-diazaspiro[4.4]nonan-2-yl}methyl)piperidin-1-yl]pyrimidin-4-yl}amino)-2-oxo-1-(propan-2-yl)-1,2-dihydroquinolin-3-yl]oxy}-N-methylacetamide], in that order: less than 10 nM and 50 to 70%.
Consider `CNC(=O)COc1cc2cc(Nc3nc(N4CCC(O[C@H]5C[C@H](N6CCCC7(CCN(c8ccc9c(c8)C(=O)N(C8CCC(=O)NC8=O)C9=O)C7)C6)C5)CC4)ncc3Cl)ccc2n(C(C)C)c1=O` (stereo partly drawn) [Compound 355, 2-({6-[(5-chloro-2-{4-[(1r,3r)-3-{2-[2-(2,6-dioxopiperidin-3-yl)-1,3-dioxo-2,3-dihydro-1H-isoindol-5-yl]-2,7-diazaspiro[4.5]decan-7-yl}cyclobutoxy]piperidin-1-yl}pyrimidin-4-yl)amino]-2-oxo-1-(propan-2-yl)-1,2-dihydroquinolin-3-yl}oxy)-N-methylacetamide], for which the half-maximal degradation concentration (DC50) was less than 10 nM. For the same molecule, the greatest degradation seen (Dmax) (T47D) is not below 70%.
